# Where “and” joins values, the source holds several entries; their conditions need not be identical. Identical values can stand only once. Entries after “also recorded” stand apart in the source; their conditions may differ.
# Tests used:
# [1] = 4-month biomarker stability study in urine samples; assay type: physicochemical, human; details: for concentration: PDE urine; for decrease at 126 days: room temperature
# Excerpt: Liquid chromatography tandem mass spectrometry experiments: Lysine metabolites were first analyzed based on previously published liquid chromatography tandem mass spectrometry (LC-MS/MS) methods (Struys, Jakobs 2007, Molecular Genetics and Metabolism 91:405; Yuzyuk et al. 2016, J Chromatogr B Analyt Technol Biomed Life Sci, 1017-1018:145-52). As the goal of this study was to replicate current newborn screening modalities, we focused on a non-derivatized MS/MS analytical method (Nagy et al. 2003, Rapid Commun Mass Spectrom 17:983-90). Samples were analyzed via electrospray ionization in positive ion mode (ESI+) using an Applied Biosystems Sciex 4000 (Applied Biosystems) equipped with a Shimadzu HPLC (Shimadzu Scientific Instruments) and a Leap auto-sampler (LEAP Technologies). Methanol (MeOH):acetonitrile (ACN) 200 μL 1:1 mixture was added to 100 μL of plasma, blood, urine, CSF or standard materials. Plasma and blood samples were centrifuged at 10,000 rpm and the supernatants used. Urine and CSF samples required no additional processing. […] Samples were analyzed using the following conditions: i) ion-spray voltage of 5500 V; ii) temperature, 450° C.; iii) collision using nitrogen gas with curtain gas (CUR) set at 10 and collisionally activated dissociation (CAD) set at 12; iv) ion source gas one (GS1) and two (GS2) were set at 30; v) entrance potential was set at 10 V; vi) quadruple one (Q1) and (Q3) were set on unit resolution; vii) dwell time was set at 200 msec.
# Biomarker stability studies: In a 4-month stability study, fresh urine samples (400 μL) from two subjects were aliquoted into 1.5 mL Eppendorf tubes and stored either at room temperature (22±2° C.), freezer (−13±3° C.) or deep freezer (−77±3° C.) and sampled over four-months.
# (§1) As a primary aim of this research was to evaluate biomarkers suitable for newborn screening, we analyzed blood spots (Whatman 903 Lot W-041) from two subjects and controls. […] A freeze-thaw study and a 4-month stability study was done in urine samples from subjects 1 and 2 (Table 4).
# (§2) To quantify 6-Oxo-PIP and Δ^1-P6C/P6CH, we prepared standard curves ranging from 0.5-500 μM from control urine (FIGS. 5 and 6). In a freeze-thaw study (6-Oxo-PIP, FIG. 6; and P6C/P6CH, FIG. 7) and a 4-month stability study (FIG. 8 and FIG. 9B), fresh urine samples (400 μL) were aliquoted into 1.5 mL Eppendorf tubes and stored either at room temperature (22±2° C.), regular freezer (−13±3° C.) or deep freezer (−77±3° C.) and sampled over a four-month period. First, both biomarkers Δ^1-P6C/P6CH and 6-Oxo-PIP were stable via four freeze-thaw cycles (6-Oxo-PIP FIG. 6; and Δ^1-P6C/P6CH FIG. 7). The initial 6-Oxo-PIP concentrations observed with patient one and patient two were 298±23 and 440±4 μM, respectively. […] The original concentrations of Δ^1-P6C/P6CH for patient one and two were 16.1±1.9 μM and 27.1±2.0 μM, respectively, an order of magnitude less than 6-oxo-PIP. […] Even after 126 days storage, roughly half of the Δ^1-P6C/P6CH from the original sample (day 1) remained.
# [2] = Four freeze-thaw cycle stability in urine; assay type: physicochemical, human; details: urine from PDE patients
# Experimental: as §1, §2
# [3] = Blood spot stability at room temperature; assay type: physicochemical, human; details: blood spots (Whatman 903) stored at room temperature
# Excerpt: as §1
# [4] = Cytosolic, S9, mitochondrial and plasma metabolism of lysine metabolites; assay type: in vitro ADME, human
# Experimental: Cytosolic and mitochondrial metabolism of lysine metabolites: Human liver cytosol 100 μL (10 mg/mL) or S9 fraction 100 μL (20 mg/mL) and 100 μL NAD+ (1.2 mM final) in 400 μL PBS pH 7.4 were preincubated at 37° C. for 5 min, followed by addition of 100 μL Δ1-P6C (100 μM); 100 μL samples were taken at 0.5, 5, 20 and 50 min, added to 300 μL 1:1 MeOH:ACN and analysed by LC-MS/MS. To probe potential phase II metabolism, 100 μL human liver microsomes (20 mg protein/mL) were similarly incubated with 4.0 mM UDPGA.
# Human liver mitochondria were freshly prepared by homogenization of a human liver sample with a Teflon pestle in 5% weight to volume Zheng buffer (Zheng et al. 1990, Biochim Biophys Acta 1019:1-10), and after centrifugation at 5600 g for 5 min, the supernatant was transferred to a centrifuge tube; this procedure was repeated on the resuspended pellet a second time. Both supernatants were combined, centrifuged at 37,500 g for 5 min, the resulting pellet resuspended in Zheng buffer, homogenized and similarly pelleted again, and resuspended in 300 μL Zheng buffer to provide a mitochondrial preparation, with protein concentration determined using the Bio-Rad Protein Assay. To access the mitochondrial matrix, the homogenate was subjected to 3 freeze-thaw cycles, followed by 2×7 bursts of sonication on ice using a Branson 450 digital sonifier with a 2-inch cup horn at 30% amplitude. Of this mitochondrial preparation 100 μL was similarly incubated with Δ1-P6C and analyzed as above.
# Albeit small, the formation of 6-oxo-PIP raises the possibility of a second pathway. […] Thus, this alternative mechanism to AAA is not a major pathway.
# [5] = 4-month biomarker stability study in urine samples; assay type: physicochemical, human; details: PDE urine, −70° C.
structure (smiles),measurement,setting,value
"O=C1CCC[C@@H](C(=O)O)N1 [6-oxo-PIP, (S)-6-oxopiperidine-2-carboxylic acid]",concentration,"[1]; Room Temperature, Subject 1, day 0",298 ± 23 µM and 297.0 µM
same,concentration,"[1]; Room Temperature, Subject 1, day 0, listed as 6-Oxo-PIP",298 ± 23 µM
same,concentration,"[1]; Room Temperature, Subject 1, day 1",294.8 µM
same,concentration,"[1]; Room Temperature, Subject 1, day 2",283.5 µM
same,concentration,"[1]; Room Temperature, Subject 1, day 3",30.1 µM
same,concentration,"[1]; Room Temperature, Subject 1, day 5",257.6 µM
same,concentration,"[1]; Room Temperature, Subject 1, day 7",252.1 µM
same,concentration,"[1]; Room Temperature, Subject 1, day 10",234.7 µM
same,concentration,"[1]; Room Temperature, Subject 1, day 14",233.0 µM
same,concentration,"[1]; Room Temperature, Subject 1, day 21",197.5 µM
same,concentration,"[1]; Room Temperature, Subject 1, day 60",182.0 µM
same,concentration,"[1]; Room Temperature, Subject 1, day 126",170.0 µM
same,concentration,"[1]; Room Temperature, Subject 2, day 0",440 ± 4 µM and 440.1 µM
same,concentration,"[1]; Room Temperature, Subject 2, day 0, listed as 6-Oxo-PIP",440 ± 4 µM
same,concentration,"[1]; Room Temperature, Subject 2, day 1",390.8 µM
same,concentration,"[1]; Room Temperature, Subject 2, day 2",418.2 µM
same,concentration,"[1]; Room Temperature, Subject 2, day 3",387.7 µM
same,concentration,"[1]; Room Temperature, Subject 2, day 5",383.9 µM
same,concentration,"[1]; Room Temperature, Subject 2, day 7",346.0 µM
same,concentration,"[1]; Room Temperature, Subject 2, day 10",345.2 µM
same,concentration,"[1]; Room Temperature, Subject 2, day 14",330.2 µM
same,concentration,"[1]; Room Temperature, Subject 2, day 21",322.6 µM
same,concentration,"[1]; Room Temperature, Subject 2, day 60",312.3 µM
same,concentration,"[1]; Room Temperature, Subject 2, day 126",295.3 µM
same,concentration,"[1]; −15° C., Subject 1, day 0",284.8 µM
same,concentration,"[1]; −15° C., Subject 1, day 3",243.1 µM
same,concentration,"[1]; −15° C., Subject 1, day 7",260.8 µM
same,concentration,"[1]; −15° C., Subject 1, day 10",285.1 µM
same,concentration,"[1]; −15° C., Subject 1, day 14",219.7 µM
same,concentration,"[1]; −15° C., Subject 1, day 21",227.7 µM
same,concentration,"[1]; −15° C., Subject 1, day 60",218.4 µM
same,concentration,"[1]; −15° C., Subject 1, day 126",211.5 µM
same,concentration,"[1]; −15° C., Subject 2, day 0",387.6 µM
same,concentration,"[1]; −15° C., Subject 2, day 3",359.0 µM
same,concentration,"[1]; −15° C., Subject 2, day 7",345.0 µM
same,concentration,"[1]; −15° C., Subject 2, day 10",336.5 µM
same,concentration,"[1]; −15° C., Subject 2, day 14",385.3 µM
same,concentration,"[1]; −15° C., Subject 2, day 21",345.2 µM
same,concentration,"[1]; −15° C., Subject 2, day 60",322.3 µM
same,concentration,"[1]; −15° C., Subject 2, day 126",314.3 µM
same,concentration,"[1]; −70° C., Subject 1, day 0",284.8 µM
same,concentration,"[1]; −70° C., Subject 1, day 3",298.2 µM
same,concentration,"[1]; −70° C., Subject 1, day 7",271.9 µM
same,concentration,"[1]; −70° C., Subject 1, day 10",221.7 µM
same,concentration,"[1]; −70° C., Subject 1, day 14",218.9 µM
same,concentration,"[1]; −70° C., Subject 1, day 21",217.4 µM
same,concentration,"[1]; −70° C., Subject 1, day 60",211.3 µM
same,concentration,"[1]; −70° C., Subject 1, day 126",198.4 µM
same,concentration,"[1]; −70° C., Subject 2, day 3",356.4 µM
same,concentration,"[1]; −70° C., Subject 2, day 7",329.2 µM
same,concentration,"[1]; −70° C., Subject 2, day 10",380.3 µM
same,concentration,"[1]; −70° C., Subject 2, day 14",418.3 µM
same,concentration,"[1]; −70° C., Subject 2, day 21",320.1 µM
same,concentration,"[1]; −70° C., Subject 2, day 126",322.7 µM
same,stability at room temperature,[1]; urine samples stored at room temperature (22±2° C.),considerably more stable than Δ^1-P6C/P6CH; also recorded: measurable for up to four months
same,initial decrease within the first two weeks,"[1]; urine, regardless of storage temperature",20-21%
same,decrease at 126 days,"[1]; urine, subject 1",43%
same,decrease at 126 days,"[1]; urine, subject 2",33%
same,stability via four freeze-thaw cycles,[2],stable
same,signal in blood spots,[3],noted in the initial blood spot
same,conversion to AAA (hydrolytic ring opening),[4]; incubation with human S9,none of these experiments showed a conversion
same,conversion to AAA (hydrolytic ring opening),[4]; incubation with human cytosol,none of these experiments showed a conversion
same,conversion to AAA (hydrolytic ring opening),[4]; incubation with human plasma (e.g. esterase activity),none of these experiments showed a conversion
same,concentration,"[5]; Subject 2, day 0",387.6 µM
same,concentration,"[5]; Subject 2, day 60",340.7 µM

# — patent publication US12025596B2, “6-oxo-pipecolic acid quantitation by mass spectrometry” (THE REGENTS OF THE UNIVERSITY OF COLORADO, priority 2018, dated 2024)
